Entries after “also recorded” stand apart in the source; their conditions may differ.
Columns and labels:
[1] = test system: human B-precursor leukemic cell line; conditions: by inducing apoptosis; cited from earlier work
[2] = test system: primary cultured cranial neural crest cells; test: AG490 (Jak inhibitor) treatment of primary cultured cranial neural crest cells, alive cell count; type: cell-based, mouse; conditions: E8.5 FACS sorted cells
Protocol: (§1) AG490 (Sigma Chemical Co., St Louis, Mo., USA) was reconstituted in dimethyl sulfoxide (DMSO) and stored at −20° C. A stock concentration was 10 mM. Cranial tissues of Wnt1-Cre;R26R;EGFP mouse at E8.5 were dissociated by 0.025% trypsin and 1 mg/ml collagenase in DPBS. Then, neural crest cells labeled with Wnt1-Cre;R26R;EGFP were sorted by means of FACS and used for Jak inhibitor treatment. D7-1 or primary cultured cranial neural crest cells were seeded to fibronectin coated plate at a density of 20000 or 12700 cell/cm^2 respectively, and incubated for three days in basal medium as described above, added with either control DMSO, 10 μM AG490, or 20 μM AG490. Culture medium was changed daily. Alive cell number was counted on each day for D7-1 and third day for primary cultured cells.
These experiments were done with a long-term cultured craNCSC clone, D7-1, which has been treated with LIF during entire culture process. Therefore, it is possible that D7-1 cells has been poised to LIF and adopted to the JAK-STAT dependent culture condition. To evaluate this, Applicants freshly isolated Wnt1-Cre;R26R;EGFP positive cranial neural crest cells from E8.5 mouse embryos by FACS sorting and treated them with AG490 for three days. If JAK2 activity is dispensable to these primary neural crest, chemical treatment would not cause any apparent effects. […]

[3] = test system: STAT3 negative cells; conditions: 80 μM AG490; cited from earlier work
[4] = test system: craNCSC clone D7-1; test: AG490 (Jak inhibitor) treatment of long-term cultured craNCSC clone D7-1, alive cell count; type: cell-based, mouse; conditions: counted daily, vs 0.4% DMSO vehicle
Protocol: as §1
The hypothesis that phosphorylation of STAT3 by JAK kinase is essential for the maintenance of craNCSC was also investigated. JAK inhibitor AG490 was used for this study. AG490 is synthetic PTK inhibitor with anti-JAK2 activity. […] If craNCSC require the JAK-STAT signal for its maintenance, treatment of AG490 will cause overt effects. 10 μM and 20 μM AG490 treatment against D7-1 was performed for three days and alive cell number was counted on each day. […] Dose dependent susceptibility of D7-1 against AG490 was also evident.

[5] = test system: cells which are independent from the JAK-STAT signal; conditions: cited from earlier work

N#C/C(=C/c1ccc(O)c(O)c1)C(=O)NCc1ccccc1 [AG490]
cell growth [1]: prevents the growth
cell mortality (alive cell number) ([2]; 10 μM AG490, three days): High cell mortality
cell mortality (alive cell number) ([2]; 20 μM AG490, three days): High cell mortality
general toxicity [3]: does not cause general toxicity
alive (viable) cell number ([4]; 10 μM AG490, three days): smaller effect; also recorded: more modest effect
alive (viable) cell number ([4]; 20 μM AG490, three days): significant reduction of the viable cells; also recorded: significant depletion of cell survival
effect on cells [5]: no obvious effect
